We go through 2 molecules from publication PMC6480586, “Intestinal Permeability Study of Clinically Relevant Formulations of Silibinin in Caco-2 Cell Monolayers” (International Journal of Molecular Sciences, 2019).

Data set [1] can be described thus: Caco-2 cell monolayer transport (permeability) study. Type of data set: in vitro ADME. The note with it: human, formulations at 200 µg/mL in HBSS/0.6% DMSO, pH 7.4, 37 °C, up to 120 min, n = 6; for Papp A→B at 120 min, 200 µg/mL: apical to basolateral. As to the method: Caco-2 cells were seeded at a density of 1 × 10^5 onto Transwell 6-well inserts with a polyethylene terephthalate membrane (0.4 µm pore size; BD Falcon) and were maintained at 37 °C under 90% humidity and 5% CO2. The medium was replaced every two to three days for both the AP and BL chambers. Cell monolayers were used 19–21 days after seeding, once confluence and differentiation were achieved. The integrity of each cell monolayer was assessed by measuring the TEER before and after the experiments with an epithelial voltammeter (Millicell-ERS). Permeability studies were performed by adding the silibinin formulations at 200 µg/mL in HBSS/0.6% DMSO (stocks were prepared at 30 mg/mL in 100% DMSO) and, in parallel, standard silibinin at different concentrations (10, 20, 50, 100, 150, 200, and 300 µmol/L).
The transport experiment was initiated by removing the culture medium from the AP and BL chambers. The Caco-2 monolayers were washed twice with pre-warmed HBSS (pH 7.4) and incubated with the same solution at 37 °C for 30 min. […]
Transport studies were performed from apical-to-basolateral (AP–BL) and basolateral-to-apical (BL–AP) chambers. The apparent permeability (Papp) values for each compound were calculated according to the following equation: Papp=dQ/dt·1/A·C0·60 where Papp is the apparent permeability (cm/s), dQ/dt is the steady-state flux, A is the diffusion area of the monolayers (cm^2), C0 is the initial concentration of the drug in the donor compartment (µM), and 60 is a conversion factor [49].
The efflux ratio was calculated to determine the absorption mechanism such as the ratio of Papp (BL–AP) […] Papp (AP–BL).
Analyses were performed using an Agilent LC 1100 series HPLC system (Agilent Technologies, Inc., Palo Alto, CA) controlled by Chemstation software, equipped with a pump, autosampler, column oven, and UV–VIS diode array detector (wavelength selected at 280 nm to detect silibinin). […] A calibration graph for the quantitative evaluation of silibinin was performed using a six-point regression curve (r^2 > 0.999).

For data set [2] the following is noted: cited from earlier work.

The structures appear in SMILES notation.

As to `COCCc1ccc(OCC(O)CNC(C)C)cc1` (centres unmarked) [metroprolol, metoprolol], the Papp A→B at 120 min, 200 µg/mL in data set [1] is 60 ×10⁻⁶ cm/s.
In data set [1], `COc1cc(C2Oc3cc([C@H]4Oc5cc(O)cc(O)c5C(=O)[C@@H]4O)ccc3OC2CO)ccc1O` (some centres unmarked) [silibinin] registered a Papp A→B at 120 min, 200 µg/mL of 3.2 ×10⁻⁶ cm/s. Further, in data set [1] (basolateral to apical), the Papp B→A at 120 min, 200 µg/mL was determined as 6.28 ×10⁻⁶ cm/s. Further, in data set [2] (e.g., acetone, DMF, THF), the “Solubility in polar aprotic solvents” value is “soluble”. The “Solubility in non-polar solvents” value in data set [2] (e.g., chloroform and petroleum ether) was “insoluble”. Besides, in data set [2] (e.g., ethanol and methanol), the “Solubility in polar protic solvents” value is “poorly soluble”. Besides, in data set [2] (water), the “Solubility in water” value is “very poor solubility in water” and the Water solubility is reported as < 0.04 mg/mL.
